Measurements reported in the NIST ThermoML archive (doi:10.1016/j.jct.2017.08.004).

Test: molar heat capacity at constant pressure
Details: 101.33 kPa, Crystal

OC[C@@H](O)[C@@H](O)CO [meso-1,2,3,4-butanetetrol]
Details | molar heat capacity at constant pressure [J/K/mol]
1 K, relaxation calorimetry | 0.00103
1.924 K, relaxation calorimetry | 0.005451
2 K, relaxation calorimetry | 0.006099
2.124 K, relaxation calorimetry | 0.007391
2.347 K, relaxation calorimetry | 0.009418
2.604 K, relaxation calorimetry | 0.01294
2.892 K, relaxation calorimetry | 0.01782
3 K, relaxation calorimetry | 0.01982
3.203 K, relaxation calorimetry | 0.02425
3.549 K, relaxation calorimetry | 0.03325
3.937 K, relaxation calorimetry | 0.04561
4 K, relaxation calorimetry | 0.04786
4.364 K, relaxation calorimetry | 0.06293
4.842 K, relaxation calorimetry | 0.08785
5 K, relaxation calorimetry | 0.09724
5.372 K, relaxation calorimetry | 0.1225
5.959 K, relaxation calorimetry | 0.1717
6 K, relaxation calorimetry | 0.1763
6.613 K, relaxation calorimetry | 0.2418
7 K, relaxation calorimetry | 0.2944
7.34 K, relaxation calorimetry | 0.3445
8 K, relaxation calorimetry | 0.4614
8.147 K, relaxation calorimetry | 0.493
9 K, relaxation calorimetry | 0.6863
9.042 K, relaxation calorimetry | 0.6996
10 K, relaxation calorimetry | 0.9714
10.11 K, relaxation calorimetry | 0.9995
11.21 K, relaxation calorimetry | 1.394
12.45 K, relaxation calorimetry | 1.929
13.81 K, relaxation calorimetry | 2.607
15 K, relaxation calorimetry | 3.273
15.35 K, relaxation calorimetry | 3.484
17.04 K, relaxation calorimetry | 4.582
18.93 K, relaxation calorimetry | 5.892
20 K, relaxation calorimetry | 6.679
21.01 K, relaxation calorimetry | 7.451
23.34 K, relaxation calorimetry | 9.268
25 K, relaxation calorimetry | 10.62
25.88 K, relaxation calorimetry | 11.3
28.73 K, relaxation calorimetry | 13.63
30 K, relaxation calorimetry | 14.7
31.9 K, relaxation calorimetry | 16.25
35 K, relaxation calorimetry | 18.79
35.42 K, relaxation calorimetry | 19.19
39.33 K, relaxation calorimetry | 22.36
40 K, relaxation calorimetry | 22.84
43.67 K, relaxation calorimetry | 25.77
45 K, relaxation calorimetry | 26.81
48.45 K, relaxation calorimetry | 29.39
50 K, relaxation calorimetry | 30.63
53.77 K, relaxation calorimetry | 33.35
55 K, relaxation calorimetry | 34.26
59.7 K, relaxation calorimetry | 37.69
60 K, relaxation calorimetry | 37.94
65 K, relaxation calorimetry | 41.5
66.26 K, relaxation calorimetry | 42.34
70 K, relaxation calorimetry | 44.95
73.58 K, relaxation calorimetry | 47.19
75 K, relaxation calorimetry | 48.3
80 K, relaxation calorimetry | 51.54
81.69 K, relaxation calorimetry | 52.8
85 K, relaxation calorimetry | 54.68
90 K, relaxation calorimetry | 57.74
90.67 K, relaxation calorimetry | 58.3
95 K, relaxation calorimetry | 60.72
100 K, relaxation calorimetry | 63.64
100.62 K, relaxation calorimetry | 63.74
110 K, relaxation calorimetry | 69.28
110.75 K, relaxation calorimetry | 69.63
120 K, relaxation calorimetry | 74.73
120.81 K, relaxation calorimetry | 75.51
130 K, relaxation calorimetry | 80.03
130.85 K, relaxation calorimetry | 80.63
140 K, relaxation calorimetry | 85.23
140.98 K, relaxation calorimetry | 85.76
150 K, relaxation calorimetry | 90.34
151.1 K, relaxation calorimetry | 90.49
160 K, relaxation calorimetry | 95.4
161.19 K, relaxation calorimetry | 95.3
170 K, relaxation calorimetry | 100.41
171.29 K, relaxation calorimetry | 100.67
180 K, relaxation calorimetry | 105.4
181.37 K, relaxation calorimetry | 106.96
188.15 K, Small sample (50 mg) DSC | 104.81
189.15 K, Small sample (50 mg) DSC | 105.65
190 K, relaxation calorimetry | 110.37
190.15 K, Small sample (50 mg) DSC | 106.41
191.15 K, Small sample (50 mg) DSC | 107.06
191.45 K, relaxation calorimetry | 111.84
192.15 K, Small sample (50 mg) DSC | 107.53
193.15 K, Small sample (50 mg) DSC | 107.94
194.15 K, Small sample (50 mg) DSC | 108.84
195.15 K, Small sample (50 mg) DSC | 109.73
196.15 K, Small sample (50 mg) DSC | 110.56
197.15 K, Small sample (50 mg) DSC | 111.25
198.15 K, Small sample (50 mg) DSC | 111.77
199.15 K, Small sample (50 mg) DSC | 112.42
200 K, relaxation calorimetry | 115.34
200.15 K, Small sample (50 mg) DSC | 113.07
201.15 K, Small sample (50 mg) DSC | 113.73
201.6 K, relaxation calorimetry | 116.2
202.15 K, Small sample (50 mg) DSC | 114.29
203.15 K, Small sample (50 mg) DSC | 114.78
204.15 K, Small sample (50 mg) DSC | 115.4
205.15 K, Small sample (50 mg) DSC | 115.95
206.15 K, Small sample (50 mg) DSC | 116.45
207.15 K, Small sample (50 mg) DSC | 116.98
208.15 K, Small sample (50 mg) DSC | 117.43
209.15 K, Small sample (50 mg) DSC | 117.85
210 K, relaxation calorimetry | 120.31
210.15 K, Small sample (50 mg) DSC | 118.46
211.15 K, Small sample (50 mg) DSC | 119.05
211.7 K, relaxation calorimetry | 120.82
212.15 K, Small sample (50 mg) DSC | 119.45
213.15 K, Small sample (50 mg) DSC | 120.03
214.15 K, Small sample (50 mg) DSC | 120.6
215.15 K, Small sample (50 mg) DSC | 120.96
216.15 K, Small sample (50 mg) DSC | 121.61
217.15 K, Small sample (50 mg) DSC | 122.09
218.15 K, Small sample (50 mg) DSC | 122.56
219.15 K, Small sample (50 mg) DSC | 123.25
220 K, relaxation calorimetry | 125.28
220.15 K, Small sample (50 mg) DSC | 123.79
221.15 K, Small sample (50 mg) DSC | 124.32
221.79 K, relaxation calorimetry | 126.14
222.15 K, Small sample (50 mg) DSC | 124.76
223.15 K, Small sample (50 mg) DSC | 125.31
224.15 K, Small sample (50 mg) DSC | 125.9
225.15 K, Small sample (50 mg) DSC | 126.32
226.15 K, Small sample (50 mg) DSC | 126.8
227.15 K, Small sample (50 mg) DSC | 127.31
228.15 K, Small sample (50 mg) DSC | 127.86
229.15 K, Small sample (50 mg) DSC | 128.26
230 K, relaxation calorimetry | 130.27
230.15 K, Small sample (50 mg) DSC | 128.74
231.15 K, Small sample (50 mg) DSC | 129.25
231.89 K, relaxation calorimetry | 131.18
232.15 K, Small sample (50 mg) DSC | 129.79
233.15 K, Small sample (50 mg) DSC | 130.29
234.15 K, Small sample (50 mg) DSC | 130.84
235.15 K, Small sample (50 mg) DSC | 131.47
236.15 K, Small sample (50 mg) DSC | 132.03
237.15 K, Small sample (50 mg) DSC | 132.65
238.15 K, Small sample (50 mg) DSC | 133.18
239.15 K, Small sample (50 mg) DSC | 133.62
240 K, relaxation calorimetry | 135.27
240.15 K, Small sample (50 mg) DSC | 134.1
241.15 K, Small sample (50 mg) DSC | 134.58
241.92 K, relaxation calorimetry | 136.06
242.15 K, Small sample (50 mg) DSC | 135
243.15 K, Small sample (50 mg) DSC | 135.48
244.15 K, Small sample (50 mg) DSC | 135.91
245.15 K, Small sample (50 mg) DSC | 136.33
246.15 K, Small sample (50 mg) DSC | 136.8
247.15 K, Small sample (50 mg) DSC | 137.31
248.15 K, Small sample (50 mg) DSC | 137.82
249.15 K, Small sample (50 mg) DSC | 138.21
250 K, relaxation calorimetry | 140.29
250.15 K, Small sample (50 mg) DSC | 138.96
251.15 K, Small sample (50 mg) DSC | 139.41
251.99 K, relaxation calorimetry | 141.26
252.15 K, Small sample (50 mg) DSC | 139.85
253.15 K, Small sample (50 mg) DSC | 140.35
254.15 K, Small sample (50 mg) DSC | 140.97
255.15 K, Small sample (50 mg) DSC | 141.49
256.15 K, Small sample (50 mg) DSC | 142.02
257.15 K, Small sample (50 mg) DSC | 142.62
258.15 K, Small sample (50 mg) DSC | 143.2
259.15 K, Small sample (50 mg) DSC | 143.78
260 K, relaxation calorimetry | 145.33
260.15 K, Small sample (50 mg) DSC | 144.21
261.15 K, Small sample (50 mg) DSC | 144.74
262.11 K, relaxation calorimetry | 146.2
262.15 K, Small sample (50 mg) DSC | 145.34
263.15 K, Small sample (50 mg) DSC | 145.66
